Assay results taken from US20040086901A1, “Database for analyzing gene function and method of analyzing gene function by dspa” (priority 2000, published 2004).

Experiments:
Format in all cases: cell-based, mouse
[1] = test system: NIH3T3 cells overexpressing p53(wt); assay: MTT cell viability, p53(wt) overexpressing cells vs parental line; conditions: p53(wt) high-expressing cells / parental cell line, 3 to 4 days
Description: (§1) With regard to the function-known genes, the genes shown in the left column of Table 2 were used. With regard to the drugs, those shown in Table 1 were dissolved in DMSO to an extent of 100-fold of the maximum concentration for the search of the drugs and used. With regard to the cells, incubated NIH3T3 or ras-NIH3T3 cells were used.
(§2) Full-length cDNA of each function-known genes was incorporated into an expression vector (pRc-CMV, etc.) and transfected into NIH3T3 cells by a common method. Transformed cells were isolated using the resistance to G-418 as an index and the expression of the transfected gene in each cell was investigated by Western blotting method to select a highly expressing line.
(§3) Cell viabilities were measured according to the following procedures.
(§4) 1) From the 2nd to the 11th rows of a 96-well plate were filled with DMEM (50 μl). The 12th row was filled with 100 μl of DMEM.
(§5) 2) The 1st row was filled with 98 μl of DMEM.
(§6) 3) Drugs (2 μl each) were added into the 1st row.
(§7) 4) Continuous double-dilution was conducted from the 1st to the 9th rows. Fifty μl were taken out from the 9th row and discarded. The plate was preserved in a CO2 incubator.
(§8) 5) Cells (each high-expressing cells and the parental cell line) were detached from the medium using a trypsin solution, suspended in 10% CS-DMEM and transferred to a test tube and cell numbers (cell/ml) were counted.
(§9) 6) The cells were diluted to a concentration of 1×10^5 cells/ml, and 50 μl of the cell suspension were added to the 1st to the 11th rows of the plate followed by gently stirring.
(§10) 7) The plate was transferred to the CO2 incubator and incubated for 3 to 4 days.
(§11) 8) MTT (5 mg/ml in PBS) (10 μl) was added to the 1st to the 12th rows of the plate and incubated in the CO2 incubator at 37° C. for 4 hours.
(§12) 9) A reaction stop solution (0.04N HCl in isopropanol) (150 μl) was added followed by mixing well and being allowed to stand at room temperature for about 2 hours.
(§13) 10) Coloration of formazan which was a metabolite of the MTT dye was measured using a microplate reader. The measurement wavelength was 574 nm and the reference wavelength was 655 nm. The 10th and the 11th rows of the plate were 100% controls and the 12th row was a 0% control.
(§14) As an index for the sensitivity of highly gene-expressing cells and the parental cell line to various drugs, each of the IC40 values thereof was specified and ratios of the IC40 values were calculated. […] After that, logarithmic values of ratios of IC40 values were calculated from each gene.

[2] = test system: NIH3T3 cells overexpressing Cip-1; assay: MTT cell viability, Cip-1 overexpressing cells vs parental line; conditions: Cip-1 high-expressing cells / parental cell line, 3 to 4 days
Description: as §1, §2, §3, §4, §5, §6, §7, §8, §9, §10, §11, §12, §13, §14

[3] = test system: NIH3T3 cells overexpressing RhoA-DN; assay: MTT cell viability, RhoA-DN overexpressing cells vs parental line; conditions: RhoA-DN high-expressing cells / parental cell line, 3 to 4 days
Description: as §1, §2, §3, §4, §5, §6, §7, §8, §9, §10, §11, §12, §13, §14

[4] = test system: NIH3T3 cells overexpressing Gluco-corticoid-R; assay: MTT cell viability, Gluco-corticoid-R overexpressing cells vs parental line; conditions: Gluco-corticoid-R high-expressing cells / parental cell line, 3 to 4 days
Description: as §1, §2, §3, §4, §5, §6, §7, §8, §9, §10, §11, §12, §13, §14

[5] = test system: NIH3T3 cells overexpressing CaMKIIa-Active; assay: MTT cell viability, CaMKIIa-Active overexpressing cells vs parental line; conditions: CaMKIIa-Active high-expressing cells / parental cell line, 3 to 4 days
Description: as §1, §2, §3, §4, §5, §6, §7, §8, §9, §10, §11, §12, §13
As an index for the sensitivity of highly gene-expressing cells and the parental cell line to various drugs, each of the IC40 values thereof was specified and ratios of the IC40 values were calculated. FIG. 2 and FIG. 3 are the examples where ratios of IC40 values were calculated from a curve showing the dependency on the concentration of the chemical versus the viability. After that, logarithmic values of ratios of IC40 values were calculated from each gene.

[6] = test system: NIH3T3 cells overexpressing C/EBPa; assay: MTT cell viability, C/EBPa overexpressing cells vs parental line; conditions: C/EBPa high-expressing cells / parental cell line, 3 to 4 days
Description: as §1, §2, §3, §4, §5, §6, §7, §8, §9, §10, §11, §12, §13, §14

[7] = test system: NIH3T3 cells overexpressing C/EBPb; assay: MTT cell viability, C/EBPb overexpressing cells vs parental line; conditions: C/EBPb high-expressing cells / parental cell line, 3 to 4 days
Description: as §1, §2, §3, §4, §5, §6, §7, §8, §9, §10, §11, §12, §13, §14

Compound	logarithmic value of ratio of IC40 values [1]	logarithmic value of ratio of IC40 values [2]	logarithmic value of ratio of IC40 values [3]	logarithmic value of ratio of IC40 values [4]	logarithmic value of ratio of IC40 values [5]	logarithmic value of ratio of IC40 values [6]	logarithmic value of ratio of IC40 values [7]
C=C1[C@@H](O)[C@@H]2O[C@]3(CC[C@H](/C=C/[C@@H](C)[C@@H]4CC(C)=C[C@@]5(O[C@H](C[C@@](C)(O)C(=O)O)CC[C@H]5O)O4)O3)CC[C@H]2O[C@@H]1[C@@H](O)C[C@H](C)[C@H]1O[C@@]2(CCCCO2)CC[C@H]1C [OA, okadaic acid]	−0.05	−0.15	0.00	0.06	0.14	0.12	0.21
C=CC1=C(C)c2cc3[n-]c(cc4nc(cc5[n-]c(cc1n2)c(C)c5CCC(=O)O)C(CCC(=O)O)=C4C)c(C)c3C=C.[Cl-].[Cl-].[Sn+4] [SnPP]	−0.18	−0.66	0.08	0.00	0.30	0.00	−0.50
C/C=C(/C)C(=O)O[C@H]1C(C)=C2[C@H]([C@@H]1OC(=O)CCCCCCC)[C@@](C)(OC(C)=O)C[C@H](OC(=O)CCC)[C@@]1(O)[C@H]2OC(=O)[C@@]1(C)O [Thapsigargin, thapsigargin]	−0.05	0.04	0.06	0.20	0.03	−0.09	0.29
COc1ccc2c(c1)CC[C@@H]1[C@@H]2CC[C@]2(C)[C@@H](NCCCCCCN3C(=O)C=CC3=O)CC[C@@H]12 [U73122]	0.11	0.08	−0.35	0.05	0.00	0.00	0.10
ICE inhibitor-III [ICEin-3]	0.23	0.08	0.00	0.00	0.22	−0.46	0.35
